Assay results published in article PMC9127186, “Molecular Basis Underlying Hepatobiliary and Renal Excretion of Phenolic Acids of Salvia miltiorrhiza Roots (Danshen)” (Frontiers in Pharmacology, 2022).

Key:
human OAT4 = biological target: T1, human OAT4 (Homo sapiens, UniProt Q9NSA0); test: Cellular transport assay, HEK-293 cells expressing human OAT4; conditions: for K m: human renal apical uptake OAT4, 5 min incubation, concentrations in Table 1; for TransportTC/TransportMC ratio (net transport ratio): 10 min
T1 sequence (Q9NSA0 1-550): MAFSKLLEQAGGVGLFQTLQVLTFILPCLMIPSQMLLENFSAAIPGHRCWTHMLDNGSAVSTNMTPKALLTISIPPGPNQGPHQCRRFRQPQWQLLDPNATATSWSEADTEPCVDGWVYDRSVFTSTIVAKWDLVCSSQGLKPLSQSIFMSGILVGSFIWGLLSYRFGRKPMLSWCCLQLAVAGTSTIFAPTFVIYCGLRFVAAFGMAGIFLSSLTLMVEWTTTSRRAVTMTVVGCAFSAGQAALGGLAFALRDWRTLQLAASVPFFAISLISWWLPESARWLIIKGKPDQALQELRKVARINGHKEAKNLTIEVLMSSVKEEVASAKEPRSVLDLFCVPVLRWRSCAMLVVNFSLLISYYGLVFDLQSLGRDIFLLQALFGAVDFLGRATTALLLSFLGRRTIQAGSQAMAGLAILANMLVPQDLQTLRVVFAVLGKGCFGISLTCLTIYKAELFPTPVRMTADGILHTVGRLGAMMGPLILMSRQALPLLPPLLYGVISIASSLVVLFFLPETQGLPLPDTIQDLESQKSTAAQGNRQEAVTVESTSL

rat Oat1 = biological target: T2, rat Oat1 (Rattus norvegicus, UniProt O35956); test: Cellular transport assay, HEK-293 cells expressing rat Oat1; conditions: for K m: rat renal basolateral uptake Oat1, 5 min incubation, concentrations in Table 1; for TransportTC/TransportMC ratio (net transport ratio): 10 min
T2 sequence (O35956 1-551): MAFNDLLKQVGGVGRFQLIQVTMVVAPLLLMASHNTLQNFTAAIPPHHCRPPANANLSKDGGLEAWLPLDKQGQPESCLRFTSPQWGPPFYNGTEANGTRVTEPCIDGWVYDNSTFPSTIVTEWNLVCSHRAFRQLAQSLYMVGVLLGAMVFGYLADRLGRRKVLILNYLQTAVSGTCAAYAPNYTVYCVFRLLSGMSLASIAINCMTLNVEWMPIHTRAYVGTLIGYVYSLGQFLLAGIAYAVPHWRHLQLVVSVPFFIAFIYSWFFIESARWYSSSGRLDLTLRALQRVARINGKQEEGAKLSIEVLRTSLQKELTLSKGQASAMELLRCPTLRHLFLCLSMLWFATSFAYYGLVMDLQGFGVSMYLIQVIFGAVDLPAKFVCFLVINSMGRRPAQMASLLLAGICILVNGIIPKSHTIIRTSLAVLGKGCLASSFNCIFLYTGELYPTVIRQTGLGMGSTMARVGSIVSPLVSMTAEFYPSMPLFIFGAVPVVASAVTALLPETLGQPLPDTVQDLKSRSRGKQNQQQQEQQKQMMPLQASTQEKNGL

human OAT3 = biological target: T3, human OAT3 (Homo sapiens, UniProt Q8TCC7); test: Cellular transport assay, HEK-293 cells expressing human OAT3; conditions: for TransportTC/TransportMC ratio (net transport ratio): 10 min
T3 sequence (Q8TCC7 1-542): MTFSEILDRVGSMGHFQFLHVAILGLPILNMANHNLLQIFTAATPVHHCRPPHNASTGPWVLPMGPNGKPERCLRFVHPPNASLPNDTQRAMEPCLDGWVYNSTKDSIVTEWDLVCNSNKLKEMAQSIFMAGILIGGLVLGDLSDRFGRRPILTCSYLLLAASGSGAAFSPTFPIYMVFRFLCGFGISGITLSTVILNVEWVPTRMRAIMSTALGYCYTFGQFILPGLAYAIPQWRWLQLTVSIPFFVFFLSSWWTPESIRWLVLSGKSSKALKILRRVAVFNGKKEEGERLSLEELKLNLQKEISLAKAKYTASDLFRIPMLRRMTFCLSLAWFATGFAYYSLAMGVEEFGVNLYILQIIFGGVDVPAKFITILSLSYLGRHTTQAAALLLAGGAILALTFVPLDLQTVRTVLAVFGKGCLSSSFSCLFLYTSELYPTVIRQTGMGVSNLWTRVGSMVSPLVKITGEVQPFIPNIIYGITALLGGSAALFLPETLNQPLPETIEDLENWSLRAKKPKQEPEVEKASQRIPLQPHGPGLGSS
Experimental: Briefly, HEK-293 cells were grown, at 37°C and 5% CO2, in Dulbecco’s modified Eagle’s medium, which was fortified with 10% fetal bovine serum, 1% minimal essential medium nonessential amino acids, and 1% antibiotic-antimycotic solution. A day before transfection, cells were seeded onto 24-well poly-D-lysine-coated plates at a density of 2 × 10^5 cells per well. After incubation at 37°C and 5% CO2 for 24 h, the expression plasmid and the empty vector were introduced separately into the HEK293 cells with Lipofectamine 2000 transfection reagent (Invitrogen, Carlsbad, CA, United States), according to the manufacturer’s protocol to yield transporter-expressing cells and mock cells, respectively.
Transport studies were performed 48 h after the transfection. […] Differential uptake between the transfected cells and mock cells was defined as net transport ratio (TransportTC/TransportMC ratio), where TransportTC and TransportMC are the transport rates of a test Danshen compound into transfected and mock cells, respectively. […] The determination was performed under linear uptake conditions by incubation for 5 min. Table 1 summarizes the final concentrations of the test Danshen compounds for different transporters. All the incubation samples were analyzed by liquid chromatography/mass spectrometry.
GraFit software (version 5.0; Erithacus Software Ltd, Surrey, United Kingdom) was used to determine the K m and V max values by nonlinear regression analysis of initial transport rates as a function of substrate concentration.

rat Mrp2 = rat Mrp2 (Rattus norvegicus, UniProt Q63120); test: Vesicular transport assay, inside-out membrane vesicles expressing rat Mrp2; conditions: for TransportATP/TransportAMP ratio (net transport ratio): 10 min
Chain of rat Mrp2 (Q63120 whole entry): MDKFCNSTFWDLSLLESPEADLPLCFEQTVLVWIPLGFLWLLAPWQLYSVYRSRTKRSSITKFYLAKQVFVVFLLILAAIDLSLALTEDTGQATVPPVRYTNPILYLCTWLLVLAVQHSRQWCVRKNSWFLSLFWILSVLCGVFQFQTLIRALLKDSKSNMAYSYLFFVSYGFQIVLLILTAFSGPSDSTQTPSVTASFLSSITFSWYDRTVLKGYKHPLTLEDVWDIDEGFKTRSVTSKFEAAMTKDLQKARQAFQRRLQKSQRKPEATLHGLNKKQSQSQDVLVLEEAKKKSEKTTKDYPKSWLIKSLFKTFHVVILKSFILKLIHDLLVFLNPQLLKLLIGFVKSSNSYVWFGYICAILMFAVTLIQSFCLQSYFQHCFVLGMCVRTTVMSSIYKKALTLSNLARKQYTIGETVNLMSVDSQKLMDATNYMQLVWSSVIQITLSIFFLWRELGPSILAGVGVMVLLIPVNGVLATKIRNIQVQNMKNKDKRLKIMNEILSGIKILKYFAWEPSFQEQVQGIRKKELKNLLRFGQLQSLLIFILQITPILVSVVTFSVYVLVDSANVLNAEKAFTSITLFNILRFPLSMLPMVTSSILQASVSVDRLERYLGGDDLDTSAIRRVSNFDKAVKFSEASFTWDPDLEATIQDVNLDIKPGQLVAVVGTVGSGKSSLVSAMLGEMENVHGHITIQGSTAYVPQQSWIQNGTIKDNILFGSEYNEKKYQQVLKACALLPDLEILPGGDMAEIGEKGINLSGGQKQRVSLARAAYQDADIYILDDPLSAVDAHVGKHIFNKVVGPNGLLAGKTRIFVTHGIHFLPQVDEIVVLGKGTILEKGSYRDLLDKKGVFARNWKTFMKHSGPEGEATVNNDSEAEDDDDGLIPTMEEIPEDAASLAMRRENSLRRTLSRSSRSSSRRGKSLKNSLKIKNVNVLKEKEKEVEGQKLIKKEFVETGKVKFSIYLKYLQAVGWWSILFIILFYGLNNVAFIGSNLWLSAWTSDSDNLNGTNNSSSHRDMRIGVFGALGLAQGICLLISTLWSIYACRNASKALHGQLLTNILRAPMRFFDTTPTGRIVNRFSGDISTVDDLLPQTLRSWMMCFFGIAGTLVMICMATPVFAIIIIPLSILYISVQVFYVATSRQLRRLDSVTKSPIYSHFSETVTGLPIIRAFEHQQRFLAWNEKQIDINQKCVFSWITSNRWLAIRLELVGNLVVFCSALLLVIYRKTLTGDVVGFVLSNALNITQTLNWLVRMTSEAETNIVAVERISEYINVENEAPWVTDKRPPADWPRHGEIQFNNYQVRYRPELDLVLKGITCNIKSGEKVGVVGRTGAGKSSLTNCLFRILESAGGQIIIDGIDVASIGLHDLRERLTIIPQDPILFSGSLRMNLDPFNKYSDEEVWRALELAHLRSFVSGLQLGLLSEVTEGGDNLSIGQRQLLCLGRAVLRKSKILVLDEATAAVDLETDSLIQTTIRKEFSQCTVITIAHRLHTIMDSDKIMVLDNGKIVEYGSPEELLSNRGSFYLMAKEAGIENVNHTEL
Experimental: Inside-out membrane vesicles (5 mg protein/mL), prepared from insect cells expressing human multidrug resistance-associated protein (MRP) 2, MRP3, MRP4, breast cancer resistance protein (BCRP), bile salt export pump (BSEP), and multidrug resistance protein (MDR) one and rat Mrp2, Mrp4, Bcrp, and Bsep, and vesicles (5 mg protein/mL; prepared from the insect cells expressing no ABC transporter; serving as negative control) were obtained from Genomembrane (Kanazawa, Japan).
The test Danshen compounds at 100 µM final concentration were separately incubated with the membrane vesicles for 10 min. Buffer C (50 mM MOPS-tris, 70 mM KCl, 7.5 mM MgCl2, pH 7.0) was used for preincubation and incubation, while buffer D (40 mM MOPS-tris, 70 mM KCl, pH 7.0) was used for vesicle washing. The transport rate (pmol/mg protein/min) of the test Danshen compound was calculated using Equation (2): Transport=(CV×VV)/T/WV (2) where C V, V V, T, and W V represent concentration of the compound in vesicular lysates supernatant (μM), volume of the lysates (μL), incubation time (10 min), and amount of vesicle protein amount per well (0.05 mg), respectively. Differential transport of the test Danshen compound between ATP-containing vesicles and AMP-containing vesicles was defined as net transport ratio (TransportATP/TransportAMP ratio). […] All the incubation samples were analyzed by liquid chromatography/mass spectrometry.

[1] = Danshen phenolic acid at 100 μM final concentration, human OAT4-transfected vs mock cells
[2] = Danshen phenolic acid at 100 μM final concentration, rat Oat1-transfected vs mock cells
[3] = Danshen phenolic acid at 100 μM final concentration, rat Mrp2 vesicles
[4] = Danshen phenolic acid at 100 μM final concentration, human OAT3-transfected vs mock cells

Compound: O=C(O)C(O)Cc1ccc(O)c(O)c1 (centres unmarked) [Tanshinol, tanshinol]
- K m (human OAT4): 3,442 ± 940 μM
- K m (rat Oat1): 154 ± 13 µM
- microsomal CLint (rat Oat1; rat, other cell line): 4.13 µL/min/mg
- K m (human OAT3; human renal basolateral uptake OAT3, 5 min incubation, concentrations in Table 1): 1,565 ± 127 μM
- microsomal CLint (human OAT3; human, other cell line): 0.11 µL/min/mg

Compound: O=C(/C=C/c1ccc(O)c(O)c1)O[C@H](Cc1ccc(O)c(O)c1)C(=O)O [Rosmarinic acid, rosmarinic acid]
- substrate of human OAT4 (human OAT4): relatively weak substrates
- K m (human OAT4): 325 ± 53 µM
- TransportTC/TransportMC ratio (net transport ratio) (human OAT4; human, 100 μM): 7.27 ± 0.77
- microsomal CLint (human OAT4; human, other cell line): 0.15 µL/min/mg
- substrate of rat Oat1 (rat Oat1): substrates
- K m (rat Oat1): 59.2 ± 4.7 µM
- TransportTC/TransportMC ratio (net transport ratio) (rat Oat1; rat, 100 μM): 150 ± 46
- microsomal CLint (rat Oat1; rat, other cell line): 3.47 µL/min/mg
- TransportATP/TransportAMP ratio (net transport ratio) (rat Mrp2; rat, 100 μM, pH 7): 1.24 ± 0.45
- TransportTC/TransportMC ratio (net transport ratio) (human OAT3; human, 100 μM): 1.56 ± 0.36

Compound: O=C(O)c1ccc(O)c(O)c1 [Protocatechuic acid, protocatechuic acid]
- TransportTC/TransportMC ratio (net transport ratio) (human OAT4; [1]): 1.56 ± 0.46
- TransportTC/TransportMC ratio (net transport ratio) (rat Oat1; [2]): 104 ± 20
- microsomal CLint (rat Oat1; rat): 4.07 µL/min/mg
- K m (rat Oat1): 110 ± 19 µM
- TransportATP/TransportAMP ratio (net transport ratio) (rat Mrp2; [3]): 0.74 ± 0.13
- TransportTC/TransportMC ratio (net transport ratio) (human OAT3; [4]): 1.12 ± 0.25

Compound: O=C(/C=C/c1ccc(O)c(O)c1/C=C/c1ccc(O)c(O)c1)O[C@H](Cc1ccc(O)c(O)c1)C(=O)O [Salvianolic acid A, salvianolic acid A]
- TransportTC/TransportMC ratio (net transport ratio) (human OAT4; human, 100 μM): 1.56 ± 0.23
- substrate of rat Oat1 (rat Oat1): not substrates
- TransportTC/TransportMC ratio (net transport ratio) (rat Oat1; rat, 100 μM): 1.13 ± 0.64
- TransportATP/TransportAMP ratio (net transport ratio) (rat Mrp2; rat, 100 μM, pH 7): 1.80 ± 0.81
- TransportTC/TransportMC ratio (net transport ratio) (human OAT3; human, 100 μM): 2.12 ± 0.13

Compound: O=C(O)Cc1c(/C=C/C(=O)O[C@H](Cc2ccc(O)c(O)c2)C(=O)O)ccc(O)c1O [Salvianolic acid D, salvianolic acid D]
- TransportTC/TransportMC ratio (net transport ratio) (human OAT4; [1]): 2.87 ± 0.09
- TransportTC/TransportMC ratio (net transport ratio) (rat Oat1; [2]): 11.5 ± 2.9
- microsomal CLint (rat Oat1; rat): 4.72 µL/min/mg
- K m (rat Oat1): 24.4 ± 3.3 µM
- TransportATP/TransportAMP ratio (net transport ratio) (rat Mrp2; [3]): 2.21 ± 0.89
- TransportTC/TransportMC ratio (net transport ratio) (human OAT3; [4]): 1.12 ± 0.56

Compound: salvianolic acid B
- TransportTC/TransportMC ratio (net transport ratio) (human OAT4; [1]): 0.95 ± 0.23
- TransportTC/TransportMC ratio (net transport ratio) (rat Oat1; [2]): 1.56 ± 0.67
- substrate of rat Mrp2 (rat Mrp2): substrate
- TransportATP/TransportAMP ratio (net transport ratio) (rat Mrp2; [3]): 4.43 ± 1.12
- TransportTC/TransportMC ratio (net transport ratio) (human OAT3; [4]): 1.03 ± 0.24

Compound: O=C(/C=C/c1ccc(O)c2c1[C@H](C(=O)O)[C@@H](c1ccc(O)c(O)c1)O2)O[C@H](Cc1ccc(O)c(O)c1)C(=O)O [Lithospermic acid, lithospermic acid]
- TransportTC/TransportMC ratio (net transport ratio) (human OAT4; [1]): 2.91 ± 0.17
- TransportTC/TransportMC ratio (net transport ratio) (rat Oat1; [2]): 1.36 ± 0.35
- TransportATP/TransportAMP ratio (net transport ratio) (rat Mrp2; [3]): 1.83 ± 0.45
- TransportTC/TransportMC ratio (net transport ratio) (human OAT3; [4]): 0.96 ± 0.15
